Source: US10662193B2, “Carbazole and carboline compounds for use in the diagnosis, treatment, alleviation or prevention of disorders associated with amyloid or amyloid-like proteins” (AC IMMUNE SA, priority 2014, dated 2020)

Tests used:
[1] = test system: tau tangles/Aβ plaques on AD brain sections; experiment: Assay 1: direct staining of human Alzheimer's disease brain sections (fluorescence); assay type: binding; design: key to Direct staining of tau tangles/Aβ plaques on AD brain sections at 100 μM / Direct staining of tau tangles on AD brain sections at 100 μM / Direct staining of Aβ plaques on AD brain sections at 100 μM / Direct staining of tau tangles on AD brain sections (footnote a: at 250 μM): − (No); +++ (strong); ++ (good); + (weak); details: for Direct staining of tau tangles/Aβ plaques on AD brain sections at 100 μM / Direct staining of tau tangles on AD brain sections at 100 μM: 100 μM compound; for Direct staining of tau tangles/Aβ plaques on AD brain sections at 100 μM: human AD brain sections, fluorescence, cell does not say tangles or plaques; for Direct staining of tau tangles on AD brain sections (footnote a: at 250 μM): 250 μM compound
In short: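 Frozen […] amygdala sections from Braak V-VI AD donors, PFA-fixed, incubated with compound at 100 μM in 50% ethanol for 20 min at room temperature in the dark. Sudan Black quenched autofluorescence, then staining detected by fluorescence microscopy.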

[2] = test system: tau tangles on AD brain section; experiment: Assay 1: displacement of RefA on human AD brain sections (fluorescence); assay type: binding; details: for Selectivity (tau/Abeta): ratio of competition on tau tangles to competition on Aβ plaques
Procedure: Direct Binding of Compounds of this Invention to Human Alzheimer's Disease Brain Sections and/or Displacement of RefA and Compound B
Frozen sections with a thickness of […] from the amygdala of donors diagnosed with Braak stage V-VI Alzheimer's Disease (Braak, H.; Braak, E. Acta Neuropathol., 1991, 82, 239-259), were purchased from a commercial provider (Tissue Solutions) and kept at −80° C. until use.
Displacement of RefA and Compound B
Brain sections were mainly treated as described above. Test compounds were, however, incubated on the section at 250 μM in 50% ethanol for 20 min at room temperature, and then directly incubated with the fluorescent reference compounds RefA and Compound B, each at 1 μM in 50% ethanol for 20 min at room temperature. RefA and Compound B stainings were visualized using the 470 nm and 365 nm excitation filters, respectively. Images were acquired, and tangles and plaques quantified using the NIS-Element software. Only those compounds not directly staining tangles or plaques at the same wavelengths as RefA and Compound B were tested in the displacement assay.
Structure of RefA (Tago et al., J. Label. Compd. Radiopharm. 2013, DOI: 10.1002/jlcr.3133)

[3] = test system: Aβ plaques on AD brain section; experiment: Assay 1: displacement of Compound B on human AD brain sections (fluorescence); assay type: binding
Procedure: Direct Binding of Compounds of this Invention to Human Alzheimer's Disease Brain Sections and/or Displacement of RefA and Compound B Frozen sections with a thickness of […] from the amygdala of donors diagnosed with Braak stage V-VI Alzheimer's Disease (Braak, H.; Braak, E. Acta Neuropathol., 1991, 82, 239-259), were purchased from a commercial provider (Tissue Solutions) and kept at -80° C. until use. Displacement of RefA and Compound B Brain sections were mainly treated as described above. Test compounds were, however, incubated on the section at 250 μM in 50% ethanol for 20 min at room temperature, and then directly incubated with the fluorescent reference compounds RefA and Compound B, each at 1 μM in 50% ethanol for 20 min at room temperature. RefA and Compound B stainings were visualized using the 470 nm and 365 nm excitation filters, respectively. Images were acquired, and tangles and plaques quantified using the NIS-Element software. Only those compounds not directly staining tangles or plaques at the same wavelengths as RefA and Compound B were tested in the displacement assay. Structure of Compound B (prepared by a similar procedure described for […] in WO2010/011964): […]

AD brain-enriched PHF = AD brain-enriched PHF (Homo sapiens, UniProt P10636); experiment: Assay 2 (filter trap): [3H]RefA radio-binding competition assay and Ki on PHF; details: [^3H]RefA 10 nM; for Ki: PHF diluted 1/80, compound 0.12 nM to 50 μM
Procedure: Displacement of [^3H]RefA by Compounds of this Invention
50 g of frontal lobe tissue from post-mortem brain of an Alzheimer's disease (AD) patient were obtained from the London Tissue Bank. The patient was a […] and died […]. The brain sample was collected 5 hours post-mortem and characterized for Braak disease stage (Braak, H.; Braak, E. Acta Neuropathol., 1991, 82, 239-259) as stage VI. For the enrichment of PHF's, around 15 g of the AD human brain was thawed on ice and homogenized with 50 ml of homogenization buffer [0.75 M NaCl in RAB buffer (100 mM 2-(N-morpholino) ethanesulfonic acid (MES), 1 mM EGTA, 0.5 mM MgSO4, 2 mM DTT, pH 6.8) supplemented with protease inhibitors (Complete; Roche 11697498001) in a glass Dounce homogenizer. The homogenate was then incubated at 4° C. for 20 min to let any residual microtubules depolymerize, before the homogenate was transferred into polycarbonate centrifuge bottles (16×76 mm; Beckman 355603) and centrifuged at 11,000 g (12,700 RPM) in an ultracentrifuge (Beckman, XL100K) for 20 min at 4° C. using the pre-cooled 70.1 rotor (Beckman, 342184). Pellets were kept on ice. Supernatants were pooled into polycarbonate bottles and centrifuged again at 100,000 g (38,000 RPM) for 1 h at 4° C. in the 70.1 Ti rotor to isolate PHF-rich pellets, whereas soluble tau remained in the supernatants. The pellets from the first and second centrifugations were re-suspended in 120 mL of extraction buffer [10 mM Tris-HCl pH 7.4, 10% sucrose, 0.85 M NaCl, 1% protease inhibitor (Calbiochem 539131), 1 mM EGTA, 1% phosphatase inhibitor (Sigma P5726 and P0044)]. The solution was then transferred into polycarbonate centrifuge bottles (16×76 mm; Beckman 355603) and centrifuged at 15,000 g (14,800 RPM) in an ultracentrifuge (Beckman, XL100K) for 20 min at 4° C. using the 70.1 Ti rotor. In the presence of 10% sucrose and at low speed centrifugation, most PHF remained in the supernatant whereas intact or fragmented NFTs and larger PHF aggregates were pelleted. The pellets were discarded. 20% Sarkosyl (Sigma L7414-10ML) was added to the supernatants to a final concentration of 1% and stirred at room temperature for 1 h. This solution was then centrifuged into polycarbonate bottles at 100,000 g (38,000 RPM) for 1 h at 4° C. in the 70.1 Ti rotor, and the pellets containing PHF-rich material were re-suspended in a total final volume of 1.5 mL of PBS, aliquoted and stored at −80° C.
[^3H]RefA Radio-Binding Competition Assay
AD brain-enriched PHF diluted 1/80 were incubated in the presence of [^3H]RefA at 10 nM and the example compounds of this invention at 2.5 μM (250× excess), for 45 minutes at 37° C. Samples were then analyzed by on GF/B filter plates as described above (in the section “[^3H]RefA radio-binding assay and determination of the dissociation constant (Kd)). Non-specific signal was determined again with an excess of un-labeled RefA and specific binding calculated by subtracting the non-specific signal from the total signal. Competition was calculated as percent, where 0% was defined as the specific binding in the presence of vehicle (2.8% DMSO in PBS) and 100% as the values obtained in the presence of excess cold RefA. Similar assays were performed to determine the competition of the cold compounds on [^3H]RefA on in vitro aggregated recombinant human tau or Abeta1-42 For both recombinant proteins, 20 μg/mL of aggregates were incubated with 10 nM of [^3H]RefA for recombinant human tau or 80 nM of [^3H]RefA for recombinant human Abeta1-42.
Determination of the Binding Affinity (Ki)
Samples were then analyzed on GF/B filter plates as described above and Ki values calculated using Prism V5 (GraphPad).

AD brain-enriched PHF, sequence (P10636 623-708 limits assumed): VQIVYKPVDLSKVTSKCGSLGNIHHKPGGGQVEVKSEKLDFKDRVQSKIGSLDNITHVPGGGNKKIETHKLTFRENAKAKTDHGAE

| Structure (SMILES) | Direct staining of tau tangles/Aβ plaques on AD brain sections at 100 μM [1] | Competition on AD brain section tau tangles (1 μM RefA vs. 250 μM compound) [2] | Selectivity (tau/Abeta) [2] | Competition on AD brain section Aβ plaques (1 μM Compound B vs 250 μM compound) [3] [%] | Ki (AD brain-enriched PHF) [nM] | inhibition at 2.5 µM (AD brain-enriched PHF; compound 2.5 μM, no Ki determined) [%] | Direct staining of tau tangles on AD brain sections at 100 μM [1] | Direct staining of tau tangles on AD brain sections (footnote a: at 250 μM) [1] |
| --- | --- | --- | --- | --- | --- | --- | --- | --- |
| Cn1c2ccncc2c2ccc(Nc3ccc(F)c(N4CCOCC4)c3)nc21 [Example 3] | − | 78% | ~9.8 fold | 8 | 233 |  |  |  |
| CN1CCc2c(c3ccc(Nc4ccc(F)cc4N4CCOCC4)nc3n2C)C1=O [Example 175] | − | 6% |  | 0 |  | < 50 |  |  |
| Cn1c2ccncc2c2ccc(Nc3cc(F)cc(N4CCOCC4)c3)nc21 [Example 7] |  | 84% | >84 fold | 0 | 326 |  | ++ (tangles) |  |
| Cn1c2ccncc2c2ccc(Nc3ccc(F)cc3N3CCOCC3)nc21 [Example 5] | − | 0% |  | 12 | 305 |  |  |  |
| Cn1c2ccncc2c2ccc(N3CCOC[C@H]3CF)nc21 [Example 150] |  | 18% |  | 3 |  |  |  | + (tangles)^a |
| Cn1c2ccncc2c2ccc(Nc3cccc(N4CCOCC4)c3)nc21 [Example 1] | − | 84% | ~2.6 fold | 32 | 78 |  |  |  |
| Cn1c2ccncc2c2ccc(N3CCC(CCF)CC3)nc21 [Example 151] | − | 99% | ~2.4-fold | 42 |  |  |  |  |
| Cn1c2ccncc2c2ccc(Nc3cccc(N4CCOCC4)c3F)nc21 [Example 12] | − | 98% | >98 fold | 0 | 165 |  |  |  |
| Cn1c2ccncc2c2ccc(Nc3cccc(OC(F)F)c3)nc21 [Example 4] |  | 91% | ~5.4 fold | 17 | 3.3 |  |  | + (tangles)^a |
| Cn1c2ccncc2c2ccc(Nc3cncc(OCCF)c3)nc21 [Example 59] |  | 93%. | >93 fold | −9 |  |  | +++ (tangles) |  |
